From US20040235747A1, “Methods of treating and/or preventing autoimmune diseases” (Ramot At Tel-Aviv University Ltd., priority 2003, published 2004)

Columns and labels:
[1] = system: MOG-induced EAE mice; assay: MOG-induced chronic autoimmune encephalomyelitis (EAE), clinical score; format: in vivo, C57/b mice; details: NAP intranasal 0.1 microgram/mouse daily; day 11 on, P<0.01, t-test, vs control mixture without NAP (FIG. 1)
[2] = system: splenocytes; assay: Proliferative T-cell response of splenocytes (thymidine incorporation) from MOG-induced EAE mice; format: cell-based, mouse
Description: FIG. 2 illustrates the thymidine incorporation into splenocytes in a MOG-induced mouse model in the presence (filled circles) or absence (open circles) of NAP.
An additional experiment included proliferative T-cell response performed as described by Offen et al., supra.

## Asn-Ala-Pro-Val-Ser-Ile-Pro-Gln [NAP]
[1]
  clinical outcome (clinical manifestations of EAE, score 0-6): significantly improved the clinical outcome
[2]; MS model treated with NAP compared to untreated, P<0.01 (FIG. 2)
  proliferative response of splenocytes (cell proliferation, immune response): much reduced
[2]; splenocytes of NAP-treated animals, MOG up to 25 micrograms, untreated splenocytes showed increased proliferation even at 2 micrograms/well
  effect of added MOG on splenocyte proliferation: no effect
